This is an account of results in ChEMBL document CHEMBL1221220, “Transport and signaling via the amino acid binding site of the yeast Gap1 amino acid transceptor” (Nat Chem Biol, 2009).

The test system of assay [1] is T1, General amino-acid permease GAP1 (Saccharomyces cerevisiae), P19145 [L387C].
T1 sequence (whole entry): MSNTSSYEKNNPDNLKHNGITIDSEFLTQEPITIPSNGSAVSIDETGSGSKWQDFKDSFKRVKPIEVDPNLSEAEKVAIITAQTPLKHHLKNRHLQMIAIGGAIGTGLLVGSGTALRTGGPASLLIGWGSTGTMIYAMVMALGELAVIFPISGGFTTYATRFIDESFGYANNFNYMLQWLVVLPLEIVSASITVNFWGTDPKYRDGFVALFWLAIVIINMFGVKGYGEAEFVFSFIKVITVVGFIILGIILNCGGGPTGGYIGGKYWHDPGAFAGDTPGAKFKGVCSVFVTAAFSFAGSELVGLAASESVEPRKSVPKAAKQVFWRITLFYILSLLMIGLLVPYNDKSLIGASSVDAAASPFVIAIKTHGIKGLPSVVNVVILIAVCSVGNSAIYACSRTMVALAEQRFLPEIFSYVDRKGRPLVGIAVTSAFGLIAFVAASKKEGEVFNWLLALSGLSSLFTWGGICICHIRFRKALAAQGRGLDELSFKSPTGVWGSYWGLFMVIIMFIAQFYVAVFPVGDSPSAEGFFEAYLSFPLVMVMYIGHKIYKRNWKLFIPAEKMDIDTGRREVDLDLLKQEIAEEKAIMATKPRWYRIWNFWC
Kind of assay: Induction of yeast Gap1 L387C mutant-mediated trehalose activation at 2 mM in presence of 10 mM MTSEA treated before compound addition.

For assay [2] the test system is unchanged. Nature of the assay: Induction of yeast Gap1 L387C mutant-mediated trehalose activation at 10 mM.
Assay [3] concerns T2, General amino-acid permease GAP1 (Saccharomyces cerevisiae), P19145 [A403C].
T2 sequence (whole entry): T1 sequence (whole entry) with C387L, A403C
Kind of assay: Induction of yeast Gap1 A403C mutant-mediated amino acid uptake at 2 mM in presence of 10 mM MTSEA treated before compound addition.

For assay [4], the system named is T3, General amino-acid permease GAP1 (Saccharomyces cerevisiae), P19145 [A385C].
T3 sequence (whole entry): T1 sequence (whole entry) with A385C, C387L
Nature of the assay: Activation of yeast Gap1 A385C mutant-mediated amino acid uptake at 10 mM.

Assay [5] has as its system T4, General amino-acid permease GAP1 (Saccharomyces cerevisiae), P19145 [V381C].
T4 sequence (whole entry): T1 sequence (whole entry) with V381C, C387L
Kind of assay: Induction of yest Gap1 V381C mutant-mediated trehalose activation at 10 mM.

For assay [6], the system named is T3, General amino-acid permease GAP1 (Saccharomyces cerevisiae), P19145 [A385C]. Kind of assay: Induction of yeast Gap1 A385C mutant-mediated trehalose activation at 10 mM.
In assay [7] the test system is General amino-acid permease GAP1 (Saccharomyces cerevisiae), P19145 [V389C]. Kind of assay: Induction of yeast Gap1 V389C mutant-mediated trehalose activation at 2 mM in presence of 10 mM MTSEA treated before compound addition.
Chain of General amino-acid permease GAP1 (Saccharomyces cerevisiae), P19145 [V389C] (P19145 whole entry V389C): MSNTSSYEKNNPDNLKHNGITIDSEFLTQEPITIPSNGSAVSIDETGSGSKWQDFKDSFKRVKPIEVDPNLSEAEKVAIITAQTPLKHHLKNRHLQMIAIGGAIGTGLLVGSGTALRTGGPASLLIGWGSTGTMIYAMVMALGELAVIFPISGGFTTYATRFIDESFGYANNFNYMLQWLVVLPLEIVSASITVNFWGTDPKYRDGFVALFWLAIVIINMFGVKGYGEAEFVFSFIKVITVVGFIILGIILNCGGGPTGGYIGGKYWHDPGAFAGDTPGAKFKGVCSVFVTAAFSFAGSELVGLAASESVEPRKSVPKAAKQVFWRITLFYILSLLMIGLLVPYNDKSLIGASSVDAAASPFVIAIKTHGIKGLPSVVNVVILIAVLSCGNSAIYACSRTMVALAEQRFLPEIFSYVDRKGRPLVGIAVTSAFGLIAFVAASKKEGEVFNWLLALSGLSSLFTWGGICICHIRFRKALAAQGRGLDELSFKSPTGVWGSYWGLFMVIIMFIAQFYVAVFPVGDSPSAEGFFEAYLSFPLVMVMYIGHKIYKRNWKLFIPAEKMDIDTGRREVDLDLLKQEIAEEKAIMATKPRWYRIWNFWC

Positions count from the first letter of the chain named. Activity calls are given as the source filed them. The rule behind the calls is not given here.

In the case of `NC(=O)NCCC[C@H](N)C(=O)O`, in assay [1], the inhibition result is “Active”. The outcome in assay [2], in assay [4], in assay [5] and in assay [6] was inactive. Also, the outcome in assay [3] was Active. Also, the inhibition entry in assay [7] is “inactive”.
